A short description of series [1]: Drug uptake in Wistar rat brain at 0.31 to 1.25 mg/kg, po by HPLC analysis. Type of series: ADME, organism-based. The note with it: in vivo, dose 0.31-1.25 mg/kg.
The nature of series [2]: Toxicity in po dosed Wistar rat assessed as induction of lower lip retraction at 2 times MED treated for 10 mins. In kind it is organism-based. The following applies: in vivo.
A short description of series [3]: Permeability of the compound at 100 uM measured after 40 mins by PAMPA. In kind it is ADME. The following applies: read-out: permeability. Background: In PAMPA a lipid-coated filter parts donor from acceptor wells.
In series [4] the test system is Rattus norvegicus. Briefly: Antidepressant activity in Wistar rat assessed as reduction in immobility time at […], po treated 60 mins prior to testing and measured during the 5 min test period in presence of WAY100635 by Porsolt-forced swim test. In kind it is functional, organism-based.
Series [5] can be described thus: Hepatotoxicity in human HepG2 cells assessed as concentration required to show 50% cell viability measured after 72 hrs by celltiter 96 aqueous non-Radioactive cell proliferation assay. The following applies: read-out: Activity. In kind it is toxicity, cell-based.
In series [6] the test system is Rattus norvegicus. Briefly: Antidepressant activity in po dosed Wistar rat assessed as reduction in immobility time treated 60 mins prior to testing and measured during the 5 min test period by Porsolt-forced swim test. The following applies: 1 h, read-out: MED. In kind it is functional.
Series [7] is described as follows: Drug uptake in Wistar rat serum at 0.31 to 1.25 mg/kg, po by HPLC analysis. Type of series: ADME, organism-based. The following applies: in vivo, dose 0.31-1.25 mg/kg.
A short description of series [8]: Stability in rat liver microsomes assessed as parent compound remaining at 50 uM preincubated for 5 mins followed by NADPH addition and measured after 2 hrs by LC-MS analysis. Type of series: ADME, Microsome. The note with it: time 125 min, read-out: Stabilty. For orientation: Liver microsomes are vesicles of endoplasmic reticulum, rich in cytochrome P450 enzymes.

For series [9], the target named is T1, Adrenergic receptor alpha-1 (Rattus norvegicus, UniProt P15823+P23944+P43140).
T1 sequence (P15823 whole entry): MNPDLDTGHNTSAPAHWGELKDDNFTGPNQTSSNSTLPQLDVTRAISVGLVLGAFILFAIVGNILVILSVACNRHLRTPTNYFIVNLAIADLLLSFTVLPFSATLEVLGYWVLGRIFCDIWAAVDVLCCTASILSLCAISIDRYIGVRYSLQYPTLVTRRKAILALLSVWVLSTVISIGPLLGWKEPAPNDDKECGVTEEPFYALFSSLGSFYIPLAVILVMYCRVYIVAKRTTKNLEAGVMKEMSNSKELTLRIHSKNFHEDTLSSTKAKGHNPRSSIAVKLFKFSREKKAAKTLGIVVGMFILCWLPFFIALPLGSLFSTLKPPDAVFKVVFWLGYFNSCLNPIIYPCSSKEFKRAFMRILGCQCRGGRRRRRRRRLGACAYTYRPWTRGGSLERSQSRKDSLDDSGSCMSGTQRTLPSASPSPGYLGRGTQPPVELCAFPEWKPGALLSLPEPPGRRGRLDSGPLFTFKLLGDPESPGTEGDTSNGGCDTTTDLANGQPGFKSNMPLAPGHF
T1 sequence (P23944 whole entry): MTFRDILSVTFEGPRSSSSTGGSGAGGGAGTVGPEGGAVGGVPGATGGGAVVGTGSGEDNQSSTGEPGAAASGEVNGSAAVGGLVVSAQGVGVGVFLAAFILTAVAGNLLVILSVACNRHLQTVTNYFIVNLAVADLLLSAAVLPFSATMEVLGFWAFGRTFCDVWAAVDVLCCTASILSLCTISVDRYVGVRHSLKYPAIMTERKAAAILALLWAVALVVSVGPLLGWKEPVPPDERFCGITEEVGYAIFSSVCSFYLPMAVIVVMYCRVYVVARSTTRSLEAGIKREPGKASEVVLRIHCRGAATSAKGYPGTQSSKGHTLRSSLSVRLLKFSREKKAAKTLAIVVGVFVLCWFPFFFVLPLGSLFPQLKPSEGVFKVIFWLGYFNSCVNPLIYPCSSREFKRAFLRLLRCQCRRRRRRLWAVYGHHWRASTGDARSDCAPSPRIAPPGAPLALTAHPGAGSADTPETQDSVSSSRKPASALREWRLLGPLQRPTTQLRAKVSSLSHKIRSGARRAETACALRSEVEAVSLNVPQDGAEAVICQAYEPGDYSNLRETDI
T1 sequence (P43140 whole entry): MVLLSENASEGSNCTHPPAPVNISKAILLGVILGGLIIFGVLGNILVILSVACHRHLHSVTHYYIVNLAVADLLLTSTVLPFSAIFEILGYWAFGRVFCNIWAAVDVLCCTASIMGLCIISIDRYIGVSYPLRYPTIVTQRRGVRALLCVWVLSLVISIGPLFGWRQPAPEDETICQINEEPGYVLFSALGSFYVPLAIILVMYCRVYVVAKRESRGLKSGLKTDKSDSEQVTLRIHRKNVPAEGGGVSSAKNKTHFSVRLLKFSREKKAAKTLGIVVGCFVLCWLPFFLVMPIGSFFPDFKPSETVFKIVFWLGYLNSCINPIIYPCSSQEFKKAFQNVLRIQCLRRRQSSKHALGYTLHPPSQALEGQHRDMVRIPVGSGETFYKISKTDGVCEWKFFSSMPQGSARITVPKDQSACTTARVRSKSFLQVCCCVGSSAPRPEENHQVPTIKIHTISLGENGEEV
Briefly: Displacement of [3H]prazosin from alpha1 adrenergic receptor in rat cortex membranes measured after 30 mins by Microbeta2 scintillation counting method. Type of series: cell membranes.

The target in series [10] is T2, 5-hydroxytryptamine receptor 1A (Homo sapiens, UniProt P08908).
T2 sequence (P08908 whole entry): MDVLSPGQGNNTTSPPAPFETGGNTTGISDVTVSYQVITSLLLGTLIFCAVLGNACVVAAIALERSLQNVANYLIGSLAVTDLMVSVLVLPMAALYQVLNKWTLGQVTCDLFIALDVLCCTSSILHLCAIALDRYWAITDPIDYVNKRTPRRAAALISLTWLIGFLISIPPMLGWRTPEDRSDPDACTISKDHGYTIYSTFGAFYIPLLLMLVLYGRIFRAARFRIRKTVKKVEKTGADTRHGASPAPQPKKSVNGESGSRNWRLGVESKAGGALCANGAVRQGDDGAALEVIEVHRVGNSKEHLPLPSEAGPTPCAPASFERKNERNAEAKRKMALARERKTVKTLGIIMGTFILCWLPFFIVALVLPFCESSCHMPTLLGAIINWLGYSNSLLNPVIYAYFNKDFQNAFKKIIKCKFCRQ
Briefly: Biased agonist activity at human 5-HT1A receptor stably expressed in CHO-K1 cells co-expressing Galpha16/GPCR assessed as increase in calcium mobilization measured for 30 secs in presence of coelenterazine by aequorin-reporter gene based luminescence assay. Type of series: functional, cell-based.

Series [11] is described as follows: Drug uptake in Wistar rat serum at 0.04 to […], po by HPLC analysis. Type of series: ADME, organism-based. The following applies: in vivo, dose 0.04-0.63 mg/kg.
Series [12] in a line: Drug uptake in Wistar rat brain at 0.04 to […], po by HPLC analysis. Type of series: ADME, organism-based. The following applies: in vivo, dose 0.04-0.63 mg/kg.
Series [13] in a line: Toxicity in po dosed Wistar rat assessed as induction of lower lip retraction at 4 times MED treated for 10 mins. In kind it is organism-based. The following applies: in vivo.
Series [14] has as its target T2, 5-hydroxytryptamine receptor 1A. Briefly: Biased agonist activity at human 5-HT1A receptor stably expressed in CHO-K1 cells assessed as increase in ERK1/2 phosphorylation after 15 mins by Alphalisa assay. (Alpha assays give light when donor and acceptor beads are brought close together.)
For the next series, the target named is D(2) dopamine receptor (Homo sapiens, UniProt P14416). Briefly: Displacement of [3H]methylspiperone from human D2 receptor stably expressed in CHO-K1 cell membranes measured after 60 mins by Microbeta2 scintillation counting method.
Series [15] has as its target T2, 5-hydroxytryptamine receptor 1A. The experiment in a line: Displacement of [3H]8-OH-DPAT from human 5-HT1A receptor stably expressed in CHO-K1 cell membranes measured after 60 mins by Microbeta2 scintillation counting method.
For series [16] the target is unchanged. The experiment in a line: Biased agonist activity at human 5-HT1A receptor stably expressed in CHO-K1 cells assessed as inhibition of forskolin-induced cAMP accumulation after 40 mins by LANCE Ultra cAMP kit-based TR-FRET assay. In kind it is functional, cell-based.
Series [17] shares this target. The experiment in a line: Biased agonist activity at Gal4-VP16 transcription factor linked human 5-HT1A receptor expressed in human U2OS cells assessed as induction of beta-arrestin2 recruitment measured after 5 hrs by Tango assay. Type of series: cell-based.

Each structure is given as a SMILES string. Activity calls are given as the source filed them. The calls are words filed in the database; no cut-off is given here. A value given as a limit tells only on which side of the number the result lay.

D(2) dopamine receptor, sequence (P14416 whole entry): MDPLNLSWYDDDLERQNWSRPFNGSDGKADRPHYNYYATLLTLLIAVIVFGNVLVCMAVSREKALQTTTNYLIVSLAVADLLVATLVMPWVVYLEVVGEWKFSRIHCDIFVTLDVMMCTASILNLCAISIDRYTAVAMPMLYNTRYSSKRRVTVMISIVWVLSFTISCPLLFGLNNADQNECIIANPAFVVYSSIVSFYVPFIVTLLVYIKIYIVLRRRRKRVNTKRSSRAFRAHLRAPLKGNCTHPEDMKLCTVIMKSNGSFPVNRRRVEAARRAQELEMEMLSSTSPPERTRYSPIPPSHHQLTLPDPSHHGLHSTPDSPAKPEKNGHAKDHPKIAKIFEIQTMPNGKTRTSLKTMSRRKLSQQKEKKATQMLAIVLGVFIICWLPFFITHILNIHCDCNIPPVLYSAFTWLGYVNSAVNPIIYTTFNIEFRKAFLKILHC

As for `O=C(c1ccc(F)c(Cl)c1)N1CCC(F)(CNCCOc2cccc3[nH]ccc23)CC1`, the Drug uptake entry in [1] and in series [7] was “Active” in each case. The Activity entry in series [2] was “Toxic”. Also, in [3], the Papp at 40 min, 100 µM was 4.7 ×10⁻⁶ cm/s. Besides, the result in the series on Rattus norvegicus [4] was inactive. Besides, the CC50 at 72 h in series [5] was more than 50000 nM. Moreover, the minimal effective dose with Rattus norvegicus [6] came to 0.63 mg/kg.

With `CC(=O)Nc1cccc(OCCNCC2(F)CCN(C(=O)c3ccc(F)c(Cl)c3)CC2)c1`, the remaining at 2 h, 50 µM in [8] worked out at 73%.

By pKi is commonly meant the negative decadic logarithm of the Ki, by convention in mol/L. In series [9], `O=C(c1ccc(F)c(Cl)c1)N1CCC(F)(CNCCOc2cccc(C(F)(F)F)c2)CC1` showed a pKi of less than 6.

In turn, `CC1(C)Cc2cccc(OCCNCC3(F)CCN(C(=O)c4ccc(F)c(Cl)c4)CC3)c2O1` displayed a pKi in series [9] of 7.76.

A word on the EC50: it is the concentration at which the effect is half-maximal. On to `Cc1cnc(CNCC2(F)CCN(C(=O)c3ccc(F)c(Cl)c3)CC2)nc1`, for which the pKi in [9] is reported as less than 6. Further, the EC50 in series [10] is 302 nM.

Consider `COc1cccc2c1C(=O)c1c(O)c3c(c(O)c1C2=O)C[C@@](O)(C(=O)CO)C[C@@H]3O[C@H]1C[C@H](N)[C@H](O)[C@H](C)O1` [DOXORUBICIN], for which the CC50 at 72 h in series [5] was less than 1000 nM.

Consider `O=C(c1ccc(F)c(Cl)c1)N1CCC(F)(CNCCOc2ccccc2Cl)CC1`, for which the pKi in series [9] is less than 6.

Turning to `CNc1ccccc1OCCNCC1(F)CCN(C(=O)c2ccc(F)c(Cl)c2)CC1`, the Papp at 40 min, 100 µM in [3] stood at 6.7 ×10⁻⁶ cm/s. Further, the Drug uptake result in [11] and in series [12] was “Active” in each case. Further, the minimal effective dose with Rattus norvegicus [6] is 0.16 mg/kg. The compound also showed a pKi in series [9] of 6.04. For the same compound, the Activity result in [13] is listed as “Non-Toxic”. Moreover, in [8], the remaining at 2 h, 50 µM turned out to be 54%.

In general, Ki refers to the dissociation constant of the complex between target and ligand, obtained from inhibition or displacement. Low values mean higher affinity, high ones lower affinity. Take `O=C(c1ccc(Cl)c(Cl)c1)N1CCC(F)(CNCCOc2cccc(F)c2)CC1`: the EC50 was 20 nM in [14], 646 nM in series [10], 39.8 nM in [16] and 617 nM in series [17]. The values for the Ki (at D(2) dopamine receptor; in [15]) were more than 1000 nM and 0.0204 nM, respectively. In [9], this compound gave a pKi of 6.2.

As to `O=C(c1ccc(Cl)c(Cl)c1)N1CCC(F)(CNCCOc2cccc(Cl)c2)CC1`, the results for the Ki (at D(2) dopamine receptor; in series [15]) were more than 1000 nM and 0.0251 nM, respectively. Besides, the pKi in series [9] is on record as less than 6.

Turning to `O=C(c1ccc(F)c(Cl)c1)N1CCC(F)(CNCCOc2ccccc2)CC1`, in series [3], the Papp at 40 min, 100 µM came out at 8.6 ×10⁻⁶ cm/s. The CC50 at 72 h in series [5] is more than 50000 nM. The remaining at 2 h, 50 µM in series [8] is 54%.

In the case of `O=C(c1ccc(F)c(Cl)c1)N1CCC(F)(CNCCOc2cccc3cccnc23)CC1`, in series [8], the remaining at 2 h, 50 µM stood at 73%.

`O=C(c1ccc(F)c(Cl)c1)N1CCC(F)(CNCCOc2ccccc2F)CC1` displayed a pKi in series [9] of less than 6.

In turn, `CN(C)c1cccc(OCCNCC2(F)CCN(C(=O)c3ccc(F)c(Cl)c3)CC2)c1` yielded a pKi in series [9] of less than 6.

On to `N#CC(C#N)=NNc1cccc(Cl)c1` [CARBONYL CYANIDE M-CHLOROPHENYLHYDRAZONE], for which the CC50 at 72 h in series [5] was less than 10000 nM.

As for `COc1ccc(OCCNCC2(F)CCN(C(=O)c3ccc(Cl)c(Cl)c3)CC2)cc1`, the pKi in [9] was less than 6.

For `O=C(c1ccc(F)c(Cl)c1)N1CCC(F)(CNCCOc2ccccn2)CC1`, in [8], the remaining at 2 h, 50 µM came out at 54%.

As to `CC(=O)Nc1cccc(OCCNCC2(F)CCN(C(=O)c3ccc(Cl)c(Cl)c3)CC2)c1`, the pKi in series [9] is on record as less than 6.

`O=C(c1ccc(F)c(Cl)c1)N1CCC(F)(CNCCOc2cccc3c2CCN3)CC1`: the EC50 is 0.00363 nM in series [14], 3.55 nM in series [10], 0.0132 nM in [16] and 0.00513 nM in series [17]. The values for the Ki (on D(2) dopamine receptor; in [15]) were more than 1000 nM and 0.0447 nM, respectively. Moreover, in series [9], the pKi is 6.36.
